The target of the first test is human TRPA1 (Homo sapiens, UniProt O75762). Nature of the test: cell-based.
human TRPA1, sequence (O75762 whole entry): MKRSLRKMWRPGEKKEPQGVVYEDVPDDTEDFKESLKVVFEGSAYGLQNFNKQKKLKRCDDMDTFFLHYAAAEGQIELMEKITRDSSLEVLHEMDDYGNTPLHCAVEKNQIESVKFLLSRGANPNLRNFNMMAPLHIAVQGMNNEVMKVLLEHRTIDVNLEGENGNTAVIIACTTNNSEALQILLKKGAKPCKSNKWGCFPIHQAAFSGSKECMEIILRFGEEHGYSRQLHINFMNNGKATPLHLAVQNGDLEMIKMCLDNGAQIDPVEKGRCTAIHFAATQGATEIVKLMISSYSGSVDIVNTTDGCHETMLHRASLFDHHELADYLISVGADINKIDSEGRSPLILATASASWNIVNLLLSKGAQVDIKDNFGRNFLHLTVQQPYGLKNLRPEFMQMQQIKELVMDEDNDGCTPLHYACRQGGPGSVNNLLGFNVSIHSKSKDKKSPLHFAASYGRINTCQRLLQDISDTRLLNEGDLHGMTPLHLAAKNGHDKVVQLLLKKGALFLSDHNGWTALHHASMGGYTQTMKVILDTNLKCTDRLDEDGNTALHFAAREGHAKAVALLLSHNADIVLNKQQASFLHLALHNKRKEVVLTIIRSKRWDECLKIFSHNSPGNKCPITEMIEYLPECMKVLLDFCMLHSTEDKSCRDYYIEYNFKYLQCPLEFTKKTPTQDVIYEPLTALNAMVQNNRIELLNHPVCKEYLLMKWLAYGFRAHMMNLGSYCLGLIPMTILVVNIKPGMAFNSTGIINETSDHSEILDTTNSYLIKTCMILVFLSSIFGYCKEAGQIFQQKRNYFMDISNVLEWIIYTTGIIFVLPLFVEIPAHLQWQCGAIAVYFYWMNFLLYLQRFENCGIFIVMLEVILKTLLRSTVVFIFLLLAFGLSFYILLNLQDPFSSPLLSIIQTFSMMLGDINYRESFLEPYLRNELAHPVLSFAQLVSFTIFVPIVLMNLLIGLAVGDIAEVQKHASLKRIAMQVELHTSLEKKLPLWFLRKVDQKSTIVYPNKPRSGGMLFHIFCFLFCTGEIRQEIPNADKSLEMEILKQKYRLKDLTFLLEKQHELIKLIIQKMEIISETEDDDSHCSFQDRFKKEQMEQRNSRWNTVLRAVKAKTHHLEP
Details: not given
In general, IC50 refers to the point on the concentration scale where inhibition reaches its midpoint. The molecule `O=C1C2=C(NC(=S)NC2c2ccccc2O)c2ccccc21` (stereo not shown) [Compound 15] yielded a half-maximal inhibitory concentration (IC50) of less than 100 nM.
Take `O=C1C2=C(NC(=S)NC2c2ccccc2)c2ccc(O)cc21` (stereo not shown) [Compound 203]: the IC50 was more than 1000 nM.
Still for that read-out and setting: the same measure for `O=C1C2=C(NC(=S)NC2c2cccnc2)c2ccccc21` (stereo not shown) [Compound 33]: 500 to 1000 nM.

The test is the same for the next values; noted with them: read-out: Activity (IC50).
`CCOc1cccc(C2NC(=O)N(Cc3ccc(F)cc3)C3=C2C(=O)c2ccccc23)c1` (stereo not shown) [Compound 607]: the half-maximal inhibitory concentration (IC50) fell in the range of 100 to 500 nM.
Still for that read-out and setting: the same measure for `O=C1NC2=C(C(=O)c3c(O)cccc32)C(c2cc(O)ccc2Br)N1` (stereo not shown) [Compound 104]: more than 1000 nM; for `COc1ccc(F)c(C2NC(=O)NC3=C2C(=O)c2ccccc23)c1` (stereo not shown) [Compound 432]: more than 1000 nM.
Still for that read-out and setting: the same measure for `CCOC(=O)CN1C(=O)NC(c2cccc(OCC)c2)C2=C1c1ccccc1C2=O` (stereo not shown) [Compound 608]: less than 100 nM; for `C=CCOc1ccc(F)c(C2NC(=O)NC3=C2C(=O)c2ccccc23)c1` (stereo not shown) [Compound 417]: 100 to 500 nM; for `O=C1NC2=C(C(=O)c3ccccc32)C(c2cccc(C(F)(F)F)c2)N1` (stereo not shown) [Compound 452]: more than 1000 nM.
As to `CCOc1cccc(C2NC(=O)N(Cc3ccccc3)C3=C2C(=O)c2ccccc23)c1` (stereo not shown) [Compound 606], the IC50 was less than 100 nM.
Still for that read-out and setting: the same measure for `C=CCOc1cccc(C2NC(=NC#N)N(Cc3ccccc3)C3=C2C(=O)c2ccccc23)c1` (stereo not shown) [Compound 961]: more than 1000 nM; for `O=C1NC2=C(C(=O)c3ccc(O)cc32)C(c2cc(O)ccc2Br)N1` (stereo not shown) [Compound 106]: more than 1000 nM; for `C=CCOc1ccc(Cl)c(C2NC(=O)NC3=C2C(=O)c2ccccc23)c1` (stereo not shown) [Compound 415]: 100 to 500 nM.
Still for that read-out and setting: the same measure for `C=CCOc1cccc(C2NC(=S)N(C)C3=C2C(=O)c2ccccc23)c1` (stereo not shown) [Compound 306]: less than 100 nM.
Still for that read-out and setting: the same measure for `O=C1NC2=C(C(=O)c3ccccc32)C(c2cccc3[nH]c(=O)oc23)N1` (stereo not shown) [Compound 505]: more than 1000 nM.
As for `COCc1cccc(C2NC(=O)NC3=C2C(=O)c2ccccc23)c1` (stereo not shown) [Compound 453], the half-maximal inhibitory concentration (IC50) is more than 1000 nM.
Take `CN(C)c1cccc(C2NC(=O)NC3=C2C(=O)c2ccccc23)c1` (stereo not shown) [Compound 445]: the IC50 was more than 1000 nM.
The same measure, in the same setting: the same measure for `CCOc1cccc(C2NC(=O)N(C)C3=C2C(=O)c2ccccc23)c1` (stereo not shown) [Compound 603]: less than 100 nM.
Still for that read-out and setting: the same measure for `N#CN=C1NC2=C(C(=O)c3c(Cl)cccc32)C(c2cccc(OCC3CC3)c2)N1` (stereo not shown) [Compound 954]: more than 1000 nM; for `O=C1C2=C(c3ccccc31)N(Cc1ccccc1)C(=O)NC2c1cccc(OC(F)F)c1` (stereo not shown) [Compound 620]: less than 100 nM.
Same read-out and setting: the same measure for `COc1cc(OC)cc(C2NC(=O)NC3=C2C(=O)c2ccccc23)c1` (stereo not shown) [Compound 458]: more than 1000 nM; for `O=C1NC2=C(C(=O)c3ccccc32)C(c2ccccc2Cl)N1` (stereo not shown) [Compound 426]: 500 to 1000 nM.
In the case of `C=CCOc1cccc(C2NC(=O)N(Cc3ccccn3)C3=C2C(=O)c2ccccc23)c1` (stereo not shown) [Compound 636], the IC50 lay in the range of 100 to 500 nM.
`CCOc1cccc(C2NC(=O)NC3=C2C(=O)c2ccccc23)c1Cl` (stereo not shown) [Compound 423]: the IC50 was 500 to 1000 nM.
For the molecule `C=CCOc1cccc(C2NC(=O)N(C)C3=C2C(=O)c2ccccc23)c1Cl` (stereo not shown) [Compound 639], the half-inhibitory concentration (IC50) is less than 100 nM.
In the case of `CCCOc1ccc(F)c(C2NC(=O)N(CC#N)C3=C2C(=O)c2ccccc23)c1F` (stereo not shown) [Compound 648], the IC50 was less than 100 nM.
The same measure, in the same setting: the same measure for `C=CCOc1cccc(C2NC(=O)N(Cc3cccnc3)C3=C2C(=O)c2ccccc23)c1` (stereo not shown) [Compound 634]: less than 100 nM; for `CCN1C(=O)NC(c2cccc(OC(F)F)c2)C2=C1c1ccccc1C2=O` (stereo not shown) [Compound 619]: 100 to 500 nM.
Same read-out and setting: the same measure for `O=C1NC2=C(C(=O)c3ccccc32)C(c2c(Cl)cccc2Cl)N1` (stereo not shown) [Compound 449]: more than 1000 nM.
On the same count and under the same terms, the same measure for `C=CCOc1cc(Cl)cc(C2NC(=O)NC3=C2C(=O)c2ccccc23)c1` (stereo not shown) [Compound 406]: less than 100 nM; for `C=CCOc1cccc(C2NC(=O)N(Cc3ccccc3)C3=C2C(=O)c2ccccc23)c1` (stereo not shown) [Compound 632]: less than 100 nM; for `C=CCC(F)c1cccc(C2NC(=O)NC3=C2C(=O)c2ccccc23)c1` (stereo not shown) [Compound 402]: less than 100 nM.
For `C=CCOc1cccc(C2NC(=O)NC3=C2C(=O)c2ccccc23)c1OC` (stereo not shown) [Compound 455], the 50% inhibitory concentration (IC50) is more than 1000 nM.
The same measure, in the same setting: the same measure for `C=CCOc1cccc(C2NC(=O)NC3=C2C(=O)c2ccccc23)c1` (stereo not shown) [Compound 405]: less than 100 nM; for `CCCOc1cccc(C2NC(=O)N(Cc3ccccc3)C3=C2C(=O)c2ccccc23)c1` (stereo not shown) [Compound 647]: less than 100 nM; for `C=CCOc1cccc(C2NC(=O)NC3=C2C(=O)c2ccccc23)c1F` (stereo not shown) [Compound 401]: less than 100 nM.
Still for that read-out and setting: the same measure for `CCOc1cccc(C2NC(=O)N(CC#N)C3=C2C(=O)c2ccccc23)c1` (stereo not shown) [Compound 601]: less than 100 nM; for `O=C1NC2=C(C(=O)c3ccccc32)C(c2cccs2)N1` (stereo not shown) [Compound 502]: more than 1000 nM; for `COc1ccc(Br)c(C2NC(=O)NC3=C2C(=O)c2ccccc23)c1` (stereo not shown) [Compound 433]: more than 1000 nM.
Same read-out and setting: the same measure for `O=C1NC2=C(C(=O)c3c(Cl)cccc32)C(c2cc(O)ccc2Br)N1` (stereo not shown) [Compound 101]: less than 100 nM; for `CCCCCOc1cccc(C2NC(=O)NC3=C2C(=O)c2ccccc23)c1` (stereo not shown) [Compound 460]: more than 1000 nM.
As for `C=CCOc1cccc(C2NC(=O)N(C)C3=C2C(=O)c2ccccc23)c1` (stereo not shown) [Compound 629], the IC50 was less than 100 nM.
Same read-out and setting: the same measure for `COc1cccc(C2NC(=O)N(CCN(C)C)C3=C2C(=O)c2ccccc23)c1` (stereo not shown) [Compound 628]: more than 1000 nM; for `CN1C(=S)NC(c2ccccc2)C2=C1c1cccc(O)c1C2=O` (stereo not shown) [Compound 313]: more than 1000 nM.
Still for that read-out and setting: the same measure for `N#CN=C1NC2=C(C(=O)c3ccccc32)C(c2cccc(C#N)c2)N1` (stereo not shown) [Compound 955]: more than 1000 nM.
For the molecule `CN1C(=S)NC(c2cccc(C#N)c2)C2=C1c1ccccc1C2=O` (stereo not shown) [Compound 308], the IC50 is less than 100 nM.
On the same count and under the same terms, the same measure for `CCOc1cccc(C2NC(=S)NC3=C2C(=O)c2ccccc23)c1` (stereo not shown) [Compound 310]: less than 100 nM; for `O=C1NC2=C(C(=O)c3ccccc32)C(c2cc(C(F)(F)F)ccc2Cl)N1` (stereo not shown) [Compound 448]: more than 1000 nM.
On the same count and under the same terms, the same measure for `CCCOc1cccc(C2NC(=O)N(C)C3=C2C(=O)c2ccccc23)c1` (stereo not shown) [Compound 645]: less than 100 nM; for `CC(C)Oc1cccc(C2NC(=O)NC3=C2C(=O)c2ccccc23)c1` (stereo not shown) [Compound 437]: more than 1000 nM.
For `C=CCOc1cccc(C2NC(=O)NC3=C2C(=O)c2ccccc23)c1C(F)(F)F` (stereo not shown) [Compound 454], the IC50 was more than 1000 nM.
On the same count and under the same terms, the same measure for `C=CCOc1cccc(C2NC(=O)NC3=C2C(=O)c2ccccc23)c1Cl` (stereo not shown) [Compound 411]: less than 100 nM.
Take `CCOc1cccc(C2NC(=O)NC3=C2C(=O)c2ccccc23)n1` (stereo not shown) [Compound 504]: the 50% inhibitory concentration (IC50) fell in the range of 500 to 1000 nM.
The same measure, in the same setting: the same measure for `O=C1NC2=C(C(=O)c3ccccc32)C(c2cccc3c2OC(F)(F)O3)N1` (stereo not shown) [Compound 440]: more than 1000 nM.
On the same count and under the same terms, the same measure for `C=CCOc1cccc(C2NC(=NC#N)NC3=C2C(=O)c2ccccc23)c1` (stereo not shown) [Compound 950]: more than 1000 nM; for `CCCOc1cccc(C2NC(=O)N(CC)C3=C2C(=O)c2ccccc23)c1` (stereo not shown) [Compound 646]: less than 100 nM; for `CCCN1C(=O)NC(c2cccc(OC)c2)C2=C1c1ccccc1C2=O` (stereo not shown) [Compound 624]: more than 1000 nM.
Same read-out and setting: the same measure for `O=C1NC2=C(C(=O)c3ccccc32)C(c2ccc(Cl)cc2)N1` (stereo not shown) [Compound 442]: more than 1000 nM; for `CCOc1cccc(C2NC(=O)N(CC#N)C3=C2C(=O)c2ccccc23)c1F` (stereo not shown) [Compound 617]: less than 100 nM.
In the case of `CN1C(=O)NC(c2cccc(C#N)c2)C2=C1c1ccccc1C2=O` (stereo not shown) [Compound 644], the IC50 was more than 1000 nM.
On the same count and under the same terms, the same measure for `CCN1C(=O)NC(c2cccc(OC)c2)C2=C1c1ccccc1C2=O` (stereo not shown) [Compound 623]: 100 to 500 nM; for `C=CCOc1cccc(C2NC(=O)NC3=C2C(=O)c2ccccc23)c1O` (stereo not shown) [Compound 456]: more than 1000 nM.
Same read-out and setting: the same measure for `O=C1NC2=C(C(=O)c3ccccc32)C(c2cccc(OC(F)F)c2)N1` (stereo not shown) [Compound 414]: 100 to 500 nM; for `CN1C(=S)NC2=C(C(=O)c3ccccc32)C1c1ccccc1` (stereo not shown) [Compound 303]: more than 1000 nM; for `CN1C(=S)N(C)C(c2ccccc2)C2=C1c1ccccc1C2=O` (stereo not shown) [Compound 304]: more than 1000 nM.
Same read-out and setting: the same measure for `CCOc1cccc(C2NC(=S)N(C)C3=C2C(=O)c2ccccc23)c1` (stereo not shown) [Compound 311]: less than 100 nM.
For `CN1C(=S)NC2=C(C(=O)c3ccccc32)C1c1cccc(C#N)c1` (stereo not shown) [Compound 309], the IC50 was more than 1000 nM.
The same measure, in the same setting: the same measure for `CCOc1cccc(C2NC(=O)NC3=C2C(=O)c2cccnc23)c1` (stereo not shown) [Compound 902]: 100 to 500 nM.
On the same count and under the same terms, the same measure for `N#Cc1cccc(C2NC(=O)NC3=C2C(=O)c2ccccc23)c1` (stereo not shown) [Compound 430]: more than 1000 nM; for `CC(C)COc1cccc(C2NC(=NC#N)NC3=C2C(=O)c2ccccc23)c1` (stereo not shown) [Compound 959]: more than 1000 nM.
On the same count and under the same terms, the same measure for `O=C1NC2=C(C(=O)c3cc(O)ccc32)C(c2cc(O)ccc2Br)N1` (stereo not shown) [Compound 105]: more than 1000 nM; for `C=CC(F)(F)Oc1cccc(C2NC(=O)N(Cc3ccccc3)C3=C2C(=O)c2ccccc23)c1` (stereo not shown) [Compound 649]: more than 1000 nM.
Consider `CCCS(=O)(=O)c1cccc(C2NC(=O)NC3=C2C(=O)c2cccnc23)c1` (stereo not shown) [Compound 911], for which the IC50 was more than 1000 nM.
As for `C=CCOc1cccc(C2NC(=O)N(CC)C3=C2C(=O)c2ccccc23)c1` (stereo not shown) [Compound 630], the IC50 is less than 100 nM.
For the molecule `CCOc1cccc(C2NC(=O)N(Cc3ccccn3)C3=C2C(=O)c2ccccc23)c1` (stereo not shown) [Compound 611], the half-inhibitory concentration (IC50) is more than 1000 nM.
In the case of `CCOc1cccc(C2NC(=O)NC3=C2C(=O)c2ccccc23)c1` (stereo not shown) [Compound 602], the IC50 is 100 to 500 nM.
Still for that read-out and setting: the same measure for `C=CCOc1cccc(C2NC(=O)N(Cc3ccc(F)cc3)C3=C2C(=O)c2ccccc23)c1` (stereo not shown) [Compound 633]: less than 100 nM; for `CCOc1cccc(C2NC(=O)NC3=C2C(=O)c2ccccc23)c1F` (stereo not shown) [Compound 409]: less than 100 nM; for `O=C1NC2=C(C(=O)c3ccccc32)C(c2cc(O)ccc2Br)N1` (stereo not shown) [Compound 102]: 100 to 500 nM.

The record behind these values is patent US8530487B1 (priority 2009, dated 2013).
